According to patent US4278762A, “Method for the quantitative determination of plasminogen activators” (Pentapharm AG, priority 1976, dated 1981):
Counter-ions that a name gives are not always drawn. Non-standard residues stand in square brackets, D forms with d. Residues, ends and D or L forms follow the SMILES beside them. *: point of attachment. Hydrocinnamoyl = O=C(CCc1ccccc1)*; dChg = N[C@@H](C(=O)O)C1CCCCC1; pNA = O=[N+]([O-])c1ccc(N*)cc1; Chg = N[C@H](C(=O)O)C1CCCCC1; Cbz = O=C(OCc1ccccc1)*; PhAc = O=C(Cc1ccccc1)*; Bz = O=C(c1ccccc1)*

Experiments:
Type in all cases: biochemical
bovine trypsin = biological target: T1, bovine trypsin (Bos taurus, UniProt P00760); test: Activity of bovine trypsin at constant substrate and enzyme concentrations (Table IV); conditions: substrate concentration 2 × 10^-4 M; pH 8.4, ionic strength 0.30, 37° C., 405 nm
T1 sequence (P00760 24-246): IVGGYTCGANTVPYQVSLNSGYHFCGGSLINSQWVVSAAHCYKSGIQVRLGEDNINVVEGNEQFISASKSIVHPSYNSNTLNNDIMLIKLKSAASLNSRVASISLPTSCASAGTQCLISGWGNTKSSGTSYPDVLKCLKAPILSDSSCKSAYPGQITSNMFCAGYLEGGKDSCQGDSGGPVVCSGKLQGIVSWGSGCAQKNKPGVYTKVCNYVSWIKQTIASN
Method: The results listed in Table IV were obtained under the following experimental conditions: In a measuring vessel 1.7 ml of tris-imidazole buffer having a pH of 8.4 and an ionic strength of 0.30 were mixed at 37° C. with 0.1 ml of an aqueous trypsin solution having a concentration of 2 NF units of trypsin per ml. To the mixture 0.2 ml of a 2×10^-3 molar solution of the substrate to be tested was added. Thereafter, the quantity of p-nitroaniline released from the substrate by the action of the trypsin was determined by measuring the change in the optical density Δ OD per minute at a wave length of 405 nm.

kallikrein = test: Hydrolysis of tripeptide-p-nitroanilides by kallikrein
urokinase = biological target: T2, urokinase (Homo sapiens, UniProt P00749); test: Amidolytic splitting by urokinase and other plasminogen activators
T2 construct: also urine of healthy test persons

trypsin = biological target: T3, trypsin (Bos taurus, UniProt P00760); test: Kinetic constants Km and vmax of substrate hydrolysis by trypsin (Lineweaver-Burk); conditions: per NF unit
T3 construct: b360 concerns trypsin in duodenal juice
T3 sequence (P00760 24-246): T1 sequence (P00760 24-246)
Method: The enzyme and the substrate are mixed in a buffer solution, and the hydrolysis reaction is followed for 2 to 30 minutes. The concentration of substate [S] is varied, whereas the enzyme concentration is kept constant. If the extinction (OD=optical density) is plotted in a co-ordinate system as a function of time, a curve is obtained the tangent of which at time zero corresponds to the ideal course of the hydrolysis. By means of this tangent the initial rate of the hydrolysis can be determined.
If 1/v is plotted against (1/[S]), a Lineweaver-Burk diagram (cf. "Kurzes Lehrbuch der Biochemie" by P. KARLSON, Georg Thieme-Verlag, Stuttgart, 1967, p. 70) is obtained from which vmax and Km can be determined graphically.
For the determination of the kinetic constants Km and vmax listed in Table I aqueous dilution series of the substrates with concentrations from 0.1 to 2 μmoles/ml were used. […] The value of the quantity of p-nitroaniline formed per minute is a measure for the rate of hydrolysis at a given substrate concentration. […] The kinetic constants Km and vmax were determined from the points of intersection of the curves with the abscissa and the ordinate.

Quantity in nanomoles of p-nitroaniline enzymatically released from the substrate by 1 NF unit of trypsin in 1 minute (bovine trypsin)	Compound	other results
0,45 nanomoles	N=C(N)NCCCC(NC(=O)c1ccccc1)C(=O)Nc1ccc([N+](=O)[O-])cc1 (racemic) [N^α --Bz--DL--Arg--pNA . HCl, reference compound]	–
–	N=C(N)NCCC[C@H](NC(=O)[C@H](Cc1ccccc1)NC(=O)[C@@H]1CCCN1)C(=O)Nc1ccc([N+](=O)[O-])cc1 [A] (H-Pro-Phe-Arg-pNA)	hydrolysis by kallikrein (in words) (kallikrein): hydrolyzed by kallikrein
–	CC(C)[C@H](N)C(=O)NCC(=O)N[C@@H](CCCNC(=N)N)C(=O)Nc1ccc([N+](=O)[O-])cc1 [B] (H-Val-Gly-Arg-pNA)	hydrolysis by kallikrein (in words) (kallikrein): not split by kallikrein at all; splitting by urokinase and other plasminogen activators (in words) (urokinase): rapidly amidolytically split by urokinase
8,4 nanomoles	CC(C)[C@H](NC(=O)[C@H](Cc1ccccc1)NC(=O)c1ccccc1)C(=O)N[C@@H](CCCNC(=N)N)C(=O)Nc1ccc([N+](=O)[O-])cc1 [N^α --Bz--Phe--Val--Arg--pNA . HCl, reference compound] (Bz-Phe-Val-Arg-pNA)	–
10,8 nanomoles	CC(C)[C@H](N)C(=O)NCC(=O)N[C@@H](CCCNC(=N)N)C(=O)Nc1ccc([N+](=O)[O-])cc1 [Substrate II, H-Val-Gly-Arg-pNA.2HCl] (H-Val-Gly-Arg-pNA)	–
28.5 nmol	CC[C@H](C)[C@H](NC(=O)c1ccccc1)C(=O)NCC(=O)N[C@@H](CCCNC(=N)N)C(=O)Nc1ccc([N+](=O)[O-])cc1 [Substrate III, N^α -Bz-Ile-Gly-Arg-pNA.HCl] (Bz-Ile-Gly-Arg-pNA)	–
19.2 nmol	CC(C)C[C@H](NC(=O)c1ccccc1)C(=O)NCC(=O)N[C@@H](CCCNC(=N)N)C(=O)Nc1ccc([N+](=O)[O-])cc1 [Substrate IV, N^α -Bz-Leu-Gly-Arg-pNA.HCl] (Bz-Leu-Gly-Arg-pNA)	–
17.5 nmol	CC(C)[C@H](NC(=O)Cc1ccccc1)C(=O)NCC(=O)N[C@@H](CCCNC(=N)N)C(=O)Nc1ccc([N+](=O)[O-])cc1 [Substrate IX, N^α -2-Phenylacetyl-Val-Gly-Arg-pNA.HCl] (PhAc-Val-Gly-Arg-pNA)	–
15.9 nmol	CC(C)[C@H](NC(=O)c1ccccc1)C(=O)N[C@@H](CO)C(=O)N[C@@H](CCCNC(=N)N)C(=O)Nc1ccc([N+](=O)[O-])cc1 [Substrate V, N^α -Bz-Val-Ser-Arg-pNA.HCl]	–
19.1 nmol	CC[C@H](C)[C@H](NC(=O)c1ccccc1)C(=O)N[C@@H](CO)C(=O)N[C@@H](CCCNC(=N)N)C(=O)Nc1ccc([N+](=O)[O-])cc1 [Substrate VI, N^α -Bz-Ile-Ser-Arg-pNA.HCl] (Bz-Ile-Ser-Arg-pNA)	–
25.7 nmol	CC(C)C[C@H](NC(=O)c1ccccc1)C(=O)N[C@@H](CO)C(=O)N[C@@H](CCCNC(=N)N)C(=O)Nc1ccc([N+](=O)[O-])cc1 [Substrate VII, N^α -Bz-Leu-Ser-Arg-pNA.HCl] (Bz-Leu-Ser-Arg-pNA)	–
14.2 nmol	CC(C)[C@H](NC(=O)CCc1ccccc1)C(=O)NCC(=O)N[C@@H](CCCNC(=N)N)C(=O)Nc1ccc([N+](=O)[O-])cc1 [Substrate VIII, N^α -3-Phenylpropionyl-Val-Gly-Arg-pNA.HCl] (Hydrocinnamoyl-Val-Gly-Arg-pNA)	–
28.8 nmol	N=C(N)NCCC[C@H](NC(=O)CNC(=O)[C@H](N)C1CCCCC1)C(=O)Nc1ccc([N+](=O)[O-])cc1 [XIII] (H-[dChg]-Gly-Arg-pNA)	–
37.9 nmol	N=C(N)NCCC[C@H](NC(=O)CNC(=O)[C@@H](NC(=O)c1ccccc1)C1CCCCC1)C(=O)Nc1ccc([N+](=O)[O-])cc1 [XII] (Bz-[Chg]-Gly-Arg-pNA)	–
41.9 nmol	N=C(N)NCCC[C@H](NC(=O)CNC(=O)[C@H](NC(=O)c1ccccc1)C1CCCCC1)C(=O)Nc1ccc([N+](=O)[O-])cc1 [XIV] (Bz-[dChg]-Gly-Arg-pNA)	–
20.0 nmol	N=C(N)NCCC[C@H](NC(=O)CNC(=O)[C@@H](N)C1CCCCC1)C(=O)Nc1ccc([N+](=O)[O-])cc1 [XI] (H-[Chg]-Gly-Arg-pNA)	–
33.3 nmol	CC(C)[C@@H](N)C(=O)NCC(=O)N[C@@H](CCCNC(=N)N)C(=O)Nc1ccc([N+](=O)[O-])cc1 [XVI] (H-[dV]-Gly-Arg-pNA)	Vmax (trypsin): 4.17 × 10^-3 μmole/min. NF

Compound	Quantity in nanomoles of p-nitroaniline enzymatically released from the substrate by 1 NF unit of trypsin in 1 minute (bovine trypsin)	other results
CC(C)[C@H](NC(=O)OCc1ccccc1)C(=O)NCC(=O)N[C@@H](CCCNC(=N)N)C(=O)Nc1ccc([N+](=O)[O-])cc1 [XV] (Cbz-Val-Gly-Arg-pNA)	41.3 nmol	–
N=C(N)NCCC[C@H](NC(=O)CNC(=O)[C@@H](NC(=O)OCc1ccccc1)C1CCCCC1)C(=O)Nc1ccc([N+](=O)[O-])cc1 [X] (Cbz-[Chg]-Gly-Arg-pNA)	46.7 nmol	–
